Numbered stars: 1 amine (or outer) side, 2 acyl side, 3 side chain; on linkers, the order of the positions; unused ones are H or OH. Square brackets hold non-standard residues; d marks the D form. Peptide text beside a SMILES is read from it. * marks the point of attachment. C20 diacid = O=C(O)CCCCCCCCCCCCCCCCCCC(=O)*; C18 diacid = O=C(O)CCCCCCCCCCCCCCCCC(=O)*; γGlu = O=C(O)[C@H](CCC(=O)[*:2])N[*:1]; AEEA = NCCOCCOCC(=O)O

The nature of data set [1]: Solubility in 100 mM glycylglycine buffer at pH 4.0 incubated for 18 hrs by UPLC analysis. In kind it is physicochemical.
Data set [2] has as its target T1, Amylin receptor AMY3; CALCR/RAMP3 (Homo sapiens, UniProt O60896+P30988).
T1 sequence (P30988 whole entry): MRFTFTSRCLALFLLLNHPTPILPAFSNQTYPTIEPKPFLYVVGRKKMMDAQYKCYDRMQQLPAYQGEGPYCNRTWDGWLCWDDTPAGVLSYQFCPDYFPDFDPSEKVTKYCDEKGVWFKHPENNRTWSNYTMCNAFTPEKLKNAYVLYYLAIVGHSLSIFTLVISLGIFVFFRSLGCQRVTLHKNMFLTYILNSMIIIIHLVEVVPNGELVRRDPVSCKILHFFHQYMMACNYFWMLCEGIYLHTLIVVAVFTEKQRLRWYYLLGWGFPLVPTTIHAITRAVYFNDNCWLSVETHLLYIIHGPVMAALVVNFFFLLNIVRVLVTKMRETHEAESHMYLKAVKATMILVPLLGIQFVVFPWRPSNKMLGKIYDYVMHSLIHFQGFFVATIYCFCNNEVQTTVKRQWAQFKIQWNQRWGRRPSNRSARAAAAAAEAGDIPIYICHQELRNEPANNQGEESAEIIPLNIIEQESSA
T1 sequence (O60896 whole entry): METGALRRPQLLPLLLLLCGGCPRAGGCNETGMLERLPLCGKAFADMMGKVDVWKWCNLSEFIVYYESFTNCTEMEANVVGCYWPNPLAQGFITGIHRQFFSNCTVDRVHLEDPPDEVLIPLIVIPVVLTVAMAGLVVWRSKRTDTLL
The data set is described as follows: Displacement of [125I]-labeled rat amylin from human amylin receptor expressed in BHK570 cell membranes co-expressing RAMP3 incubated for 120 mins by scintillation proximity assay.

Data set [3] in a line: Solubility in 100 mM bistrispropane buffer at pH 6.5 incubated for 18 hrs by UPLC analysis. The format is physicochemical.
For data set [4], the target named is T2, Calcitonin receptor (Homo sapiens, UniProt P30988).
T2 sequence (P30988 whole entry): T1 sequence (P30988 whole entry)
The data set is described as follows: Displacement of [125I]-labeled human calcitonin from human calcitonin receptor expressed in BHK tkts13 cell membranes incubated for 1 hr by scintillation proximity assay. For orientation: Loss of bound radioactivity is the signal in a displacement assay; it reports binding, not function.

A short description of data set [5]: Solubility in 100 mM bistrispropane buffer at pH 7.0 incubated for 18 hrs by UPLC analysis. In kind it is physicochemical.
A short description of data set [6]: Solubility in 100 mM bistrispropane buffer at pH 6.0 incubated for 18 hrs by UPLC analysis. The format is physicochemical.
Data set [7] can be described thus: Solubility in 100 mM bistrispropane buffer at pH 7.5 incubated for 18 hrs by UPLC analysis. The format is physicochemical.
A short description of data set [8]: Solubility in 100 mM bistrispropane buffer at pH 8.0 incubated for 18 hrs by UPLC analysis. In kind it is physicochemical.
Data set [9] in a line: Solubility in 100 mM glycylglycine buffer at pH 3.0 incubated for 18 hrs by UPLC analysis. In kind it is physicochemical.
Data set [10] deals with T2, Calcitonin receptor. Briefly: Agonist activity at human calcitonin receptor expressed in BHK570 cells assessed as increase in intracellular cAMP concentration incubated for 3 hrs in presence of 10% FBS by CRE luciferase reporter gene assay. The format is functional, cell-based.
In data set [11] the target is T2, Calcitonin receptor. Briefly: Agonist activity at human calcitonin receptor expressed in BHK570 cells assessed as increase in intracellular cAMP concentration incubated for 3 hrs in absence of albumin by CRE luciferase reporter gene assay. The format is functional, cell-based.
Data set [12] concerns the target T1, Amylin receptor AMY3; CALCR/RAMP3. The data set is described as follows: Agonist activity at human amylin receptor expressed in BHK570 cells co-expressing RAMP3 assessed as increase in intracellular cAMP concentration incubated for 3 hrs in absence of albumin by CRE luciferase reporter gene assay. The format is functional, cell-based. For orientation: A reporter such as luciferase makes a cellular process visible.

For data set [13] the target is unchanged. The data set is described as follows: Agonist activity at human amylin receptor expressed in BHK570 cells co-expressing RAMP3 assessed as increase in intracellular cAMP concentration incubated for 3 hrs in presence of 10% FBS by CRE luciferase reporter gene assay. In kind it is functional, cell-based.
A short description of data set [14]: Solubility in 100 mM glycylglycine buffer at pH 5.0 incubated for 18 hrs by UPLC analysis. The format is physicochemical.
Data set [15] deals with Rattus norvegicus. The data set is described as follows: Reduction in food intake in Sprague-Dawley rat at 3 nmol/kg measured 0 to 24 hrs post dose relative to control. Set-up: scale not given: the % may be the effect or the level left. In kind it is functional.
Data set [16] in a line: Stability in pH 7.5 buffer assessed as lag time for fibril formation at 1 uM by Thioflavin T based fluorescence assay. In kind it is physicochemical. The following applies: pH 7.5, 1 µM.
The test system of data set [17] is Rattus norvegicus. Briefly: Reduction in food intake in Sprague-Dawley rat at 3 nmol/kg measured 24 to 48 hrs post dose relative to control. The format is functional. Set-up: scale not given: the % may be the effect or the level left.
Data set [18] in a line: Stability in pH 7.5 buffer assessed as compound recovery at 1 uM by Thioflavin T based fluorescence assay. The format is physicochemical. The following applies: read-out: Drug recovery.

Take `CC(C)C[C@H](NC(=O)[C@H](C)NC(=O)[C@H](C)NC(=O)[C@@H](NC(=O)[C@H](CO)NC(=O)[C@H](CC(C)C)NC(=O)[C@H](CCC(=O)O)NC(=O)[C@H](CO)NC(=O)[C@H](C)NC(=O)CC[C@H](NC(=O)CCCCCCCCCCCCCCCCCCC(=O)O)C(=O)O)[C@@H](C)O)C(=O)NCC(=O)N[C@@H](CCCNC(=N)N)C(=O)N[C@@H](CC(C)C)C(=O)N[C@@H](CO)C(=O)N[C@H](CCC(=O)O)C(=O)N[C@@H](CCC(=O)O)C(=O)N[C@@H](CC(C)C)C(=O)N[C@@H](Cc1cnc[nH]1)C(=O)N[C@@H](CCC(=O)O)C(=O)N[C@@H](CC(C)C)C(=O)N[C@@H](C)C(=O)N[C@H](C(=O)N[C@@H](CC(C)C)C(=O)N1CCC[C@H]1C(=O)N[C@@H](CCCNC(=N)N)C(=O)N[C@H](C(=O)N[C@@H](CCC(=O)O)C(=O)N[C@H](C(=O)NCC(=O)N[C@@H](CO)C(=O)NCC(=O)N[C@@H](CO)C(=O)N1CCC[C@H]1C(N)=O)[C@@H](C)O)[C@@H](C)O)[C@@H](C)O` ({C20 diacid-γGlu}-ASELSTAALGRLS[dE]ELHELATLPRTETGSGSP-NH2): the solubility at 18 h in data set [1], in data set [3], in data set [5], in data set [6], in [7] and in data set [8] was ≥ 200 µM in each case. The solubility at 18 h in data set [9] and in [14] was ≥ 200 µM throughout. Also, the IC50 was 0.029 nM in data set [2] and 0.022 nM in data set [4]. Further, the EC50 was 0.023 nM in data set [10], 0.014 nM in data set [11], 0.02 nM in data set [12] and 0.094 nM in [13].

`CC(C)C[C@H](NC(=O)CNC(=O)[C@H](CO)NC(=O)[C@H](C)NC(=O)CC[C@H](NC(=O)CCCCCCCCCCCCCCCCC(=O)O)C(=O)O)C(=O)N[C@@H](CO)C(=O)N[C@H](C(=O)N[C@@H](C)C(=O)N[C@@H](C)C(=O)N[C@@H](CC(C)C)C(=O)NCC(=O)N[C@@H](CCCNC(=N)N)C(=O)N[C@@H](CC(C)C)C(=O)N[C@@H](CO)C(=O)N[C@@H](CCC(N)=O)C(=O)N[C@@H](CCC(=O)O)C(=O)N[C@@H](CC(C)C)C(=O)N[C@@H](Cc1cnc[nH]1)C(=O)N[C@@H](CCC(=O)O)C(=O)N[C@@H](CC(C)C)C(=O)N[C@@H](CCC(N)=O)C(=O)N[C@H](C(=O)N[C@@H](Cc1ccc(O)cc1)C(=O)N1CCC[C@H]1C(=O)N[C@@H](CCCNC(=N)N)C(=O)N[C@H](C(=O)N[C@@H](CCC(=O)O)C(=O)N[C@H](C(=O)NCC(=O)N[C@@H](CO)C(=O)NCC(=O)N[C@H](C(=O)N[C@@H](Cc1ccc(O)cc1)C(N)=O)[C@@H](C)O)[C@@H](C)O)[C@@H](C)O)[C@@H](C)O)[C@@H](C)O` ({C18 diacid-γGlu}-ASGLSTAALGRLSQELHELQTYPRTETGSGTY-NH2): the values for the Activity in data set [15] and in [17] were 44% and 8%, respectively. Moreover, the Time in data set [16] was > 45 h. In addition, the solubility at 18 h in data set [1], in data set [3], in data set [5], in [6], in data set [7] and in [8] was ≥ 200 µM in each case. Moreover, the solubility at 18 h in [9] is ≥ 200 µM. The half-inhibitory concentration (IC50) in data set [2] is 0.122 nM; in [4] it was 0.057 nM. Moreover, the remaining at 1 µM in [18] worked out at 100%. Also, the half-maximal effective concentration (EC50) is 0.053 nM in [10] and 0.07 nM in [13].

Take `CC(C)C[C@H](NC(=O)[C@H](C)NC(=O)[C@H](C)NC(=O)[C@@H](NC(=O)[C@H](CO)NC(=O)[C@H](CC(C)C)NC(=O)[C@H](CCC(=O)O)NC(=O)[C@H](CO)NC(=O)[C@H](C)NC(=O)COCCOCCNC(=O)COCCOCCNC(=O)CC[C@H](NC(=O)CCCCCCCCCCCCCCCCCCC(=O)O)C(=O)O)[C@@H](C)O)C(=O)NCC(=O)N[C@@H](CCCNC(=N)N)C(=O)N[C@@H](CC(C)C)C(=O)N[C@@H](CO)C(=O)N[C@@H](C)C(=O)N[C@@H](CCC(=O)O)C(=O)N[C@@H](CC(C)C)C(=O)N[C@@H](Cc1cnc[nH]1)C(=O)N[C@@H](CCC(=O)O)C(=O)N[C@@H](CC(C)C)C(=O)N[C@@H](C)C(=O)N[C@H](C(=O)N[C@@H](CC(C)C)C(=O)N1CCC[C@H]1C(=O)N[C@@H](CCCNC(=N)N)C(=O)N[C@H](C(=O)N[C@@H](CCC(=O)O)C(=O)N[C@H](C(=O)NCC(=O)N[C@@H](CO)C(=O)NCC(=O)N[C@@H](CO)C(=O)N1CCC[C@H]1C(N)=O)[C@@H](C)O)[C@@H](C)O)[C@@H](C)O` ({C20 diacid-γGlu-AEEA-AEEA}-ASELSTAALGRLSAELHELATLPRTETGSGSP-NH2): the Time in data set [16] was > 45 h. The solubility at 18 h in [1], in data set [3], in [5], in [6], in data set [7] and in data set [8] was ≥ 200 µM in each case. Also, the solubility at 18 h in [9] and in [14] was ≥ 200 µM each time. Also, the IC50 in data set [2] was 0.159 nM; in data set [4], 0.05 nM. In addition, the remaining at 1 µM in data set [18] turned out to be 100%. For the same compound, the EC50 in [10] was 0.035 nM; in data set [11], 0.012 nM; in data set [12] it was 0.017 nM; in [13], 0.067 nM.

What is called solubility is the dissolved amount per volume that the medium holds. Usually IC50 stands for the midpoint of a concentration-inhibition curve. For orientation: EC50 means the midpoint of the concentration-response curve.
